This is an account of results in paper PMC6270814, “Effects of Ursolic Acid Derivatives on Caco-2 Cells and Their Alleviating Role in Streptozocin-Induced Type 2 Diabetic Rats” (Molecules, 2014).

In data set [1] the test system is Caco-2 cells. As to the kind of experiment: MTT cytotoxicity assay on Caco-2 cells. It is filed as cell-based, Human. The following applies: Homo sapiens, 24 h, mean ± SD, n = 4, read-out: Inhibition Rate %. On the procedure: (§1) Human intestinal Caco-2 cells (ATCC, Rockville, MD, USA) were incubated at 37 °C in a humidified atmosphere of 5% CO2 in air. The cells were cultured in Dulbecco’s […] medium (DMEM) with 10% heat-inactivated fetal bovine serum, 1% non-essential amino acids, 1% L-glutamine, 1% penicillin/streptomycin (Gibco Life Technologies, Grand Island, NY, USA). The cells were sub-cultured at confluence by 0.05% trypsin-0.5 mM EDTA treatment before they were applied in the experiment.
(§2) A MTT test was conducted to determine the possible toxicity of UA and its derivatives to Caco-2 cells. Briefly, cells were seeded at a density of 1 × 10^4 cells/mL in a 96-well plate and incubated for 24 h. The next day, cells were incubated with vehicle (0.1% DMSO) and compounds at 100, 50, 25, 12.5 μmol/L for 24 h, and then 5 g/L MTT solution (20 μL) was added for 4 h. Absorbance at 570 nm was measured using a Multimodel Plate Reader (Infinite 200, Tecan, Mannedorf, Switzerland).

The subject of data set [2] is STZ-induced diabetic rats. The data set can be described thus: Body weight and daily food intake of STZ-induced diabetic rats. It is filed as in vivo, rat. The following applies: compounds 100 mg/kg, glibenclamide 10 mg/kg, oral. On the procedure:
(§3) Diabetes was induced by a single intraperitoneal injection of streptozotocin (Sigma-Aldrich, St. Louis, MO, USA) at a dose of 65 mg/kg body weight. STZ was dissolved in 0.1 M cold citrate buffer, pH 4.5. Control group were injected with citrate buffer alone. After 7 days for the development of diabetes, plasma glucose levels were determined of each rat. Rats with fasting blood glucose (FBG) range of above 16.7 mmol/L were considered as DM rats and were used for further study.
(§4) According to the body weight and plasma glucose levels the rats were divided randomly into seven groups with six rats each and treated as follows: • Group I: Normal rats treated with 0.5% CMC-Na (2 mL/200 g body weight). • Group II: Diabetic rats treated with 0.5% CMC-Na. • Group III: Diabetic rats treated with 10 mg/kg of glibenclamide. • Group IV: Diabetic rats treated with 100 mg/kg of compound 1 (UA). • Group V: Diabetic rats treated with 100 mg/kg of compound 10. • Group VI: Diabetic rats treated with 100 mg/kg of compound 11. • Group VII: Diabetic rats treated with 100 mg/kg of compound 12.
(§5) The treatment was continued daily for 28 days. Blood glucose levels and body weight were measured every week to ascertain the status of diabetes. After 4 weeks of treatment, the animals were fasted for 12 h and sacrificed by cervical dislocation under mild anaesthetization, blood was collected into heparinized tubes and centrifuged at 2,000 rpm for 10 min. Livers and kidneys were removed, washed and homogenized in ice-cold normal saline. This homogenates were centrifuged at 3,000 rpm for 10 min at 4 °C, and the supernatants were collected for the estimate of antioxidant markers.

In the next data set the test system is SGLT-1. The data set can be described thus: Western blot of SGLT-1 protein expression in Caco-2 cells. It is filed as cell-based, Human. The note with it: 100 μM, 6 h. On the procedure: Caco-2 cells were cultured on 6-well plates at a density of 1 × 10^6 cells/well for 13 days. The cells were placed in serum-free medium for 24 h prior to the treatment. Then UA and its derivatives (100 μM) were added, after 6 h incubation, the cells were immediately washed three times with ice-cold PBS and lysed in 200 μL lysis buffer. Cells were allowed to lyse on ice, and then scraped, vortexed, sonicated and stored at −80 °C for further analysis. Protein concentrations were determined as described and cell lysate was subjected to western blot analysis. Briefly, proteins with same amount were denatured in sample buffer, separated on 8% SDS-PAGE gel, and transferred onto a polyvinylidene diflouride membrane. […] Membranes were then incubated overnight at 4 °C in blocking buffer with antibodies for GLUT-2, SGLT-1 and β-actin (EMD, Millipore, Billerica, MA, USA). Membranes were washed with TBST and incubated 1 h with appropriate secondary antibodies. Revelation was performed by using the enhanced chemiluminescence reagent and blue-light sensitive film. Densitometric analysis of films was performed with a Hewlett-Packard scanner equipped with a transparent adaptor and UN-SCAN-IT software.
(A western blot detects proteins with antibodies after separation by electrophoresis.)

For data set [3], the system named is STZ-induced diabetic rats. As to the kind of experiment: Oxidative stress markers (GSH, SOD, MDA) in liver and kidney of STZ-induced diabetic rats. It is filed as in vivo, rat. The note with it: 4 weeks; for GSH level in kidney: kidney of STZ diabetic rats. On the procedure:
as §3, §4, §5
The tissue homogenates of liver and kidney were used for the estimate of antioxidant markers. Glutathione (GSH) level was measured with 5, 5'-dithiobis-(2-nitrobenzoic acid) (DTNB) as described by Sedlak and Lindsay. Superoxide dismutase (SOD) activity was assessed according to the method of Sinha. Malondialdehyde (MDA) activity was estimated with the thiobarbituric acid method.

In data set [4] the test system is STZ-induced diabetic rats. The data set can be described thus: Serum biochemical parameters (insulin, total protein, albumin) in STZ-induced diabetic rats. It is filed as in vivo, rat. The following applies: 4 weeks, compounds 100 mg/kg, glibenclamide 10 mg/kg. As for the experimental part:
as §3, §4, §5
(§6) Fasting blood glucose levels were estimated on days 0, 7, 14, 28 with the single touch glucometer (Life Scan, Johnson & Johnson Company, New Brunswick, NJ, USA). Serum insulin level was measured by use of a commercial immunoassay kit by enzyme linked immunosorbent assay (Uscn. Life Science Inc., Wuhan, China). Serum total protein, albumin, triglycerides (TG), total cholesterol (TC), high-density lipoprotein cholesterol (HDL-C), and low-density lipoprotein cholesterol (LDL-C) were measured with an automatic biochemical analyzer (Sinnowa D240, Nanjing, China).

In data set [5] the test system is STZ-induced diabetic rats. As to the kind of experiment: Fasting blood glucose in STZ-induced diabetic rats, 4 weeks treatment. The format is in vivo, rat. The note with it: STZ diabetic rats; for effect on lowering fasting blood glucose levels: 100 mg/kg, 4 weeks; for Fasting Blood Glucose Level, Week 0: Week 0 (before treatment), glibenclamide 10 mg/kg; for Fasting Blood Glucose Level, Week 0 / Fasting Blood Glucose Level, Week 1 / Fasting Blood Glucose Level, Week 2 / Fasting Blood Glucose Level, Week 3 / Fasting Blood Glucose Level, Week 4: compounds 100 mg/kg, n = 6; for Fasting Blood Glucose Level, Week 1 / Fasting Blood Glucose Level, Week 2 / Fasting Blood Glucose Level, Week 3 / Fasting Blood Glucose Level, Week 4: glibenclamide 10 mg/kg daily. As for the experimental part:
Adult male albino rats of Sprague-Dawley rats (180–220 g) were obtained from the Guangdong Medical Lab Animal Center, and maintained under standard laboratory conditions in a temperature (25–30 °C) and light-controlled (12-h light/dark cycle) room with 35%–60% humidity. The animals were acclimatized for 10 days before the experiments and provided with rodent chow and water ad libitum. The investigation was conducted in accordance with the Guide for the Care and Use of Laboratory Animals and approved by the institutional Animal Ethics Committee.
as §3, §4, §5, §6

In the next data set the test system is GLUT-2. The data set can be described thus: Western blot of GLUT-2 protein expression in Caco-2 cells. It is filed as cell-based, Human. The note with it: 100 μM, 6 h. As for the experimental part: Caco-2 cells were cultured on 6-well plates at a density of 1 × 10^6 cells/well for 13 days. The cells were placed in serum-free medium for 24 h prior to the treatment. Then UA and its derivatives (100 μM) were added, after 6 h incubation, the cells were immediately washed three times with ice-cold PBS and lysed in 200 μL lysis buffer. Cells were allowed to lyse on ice, and then scraped, vortexed, sonicated and stored at −80 °C for further analysis. Protein concentrations were determined as described and cell lysate was subjected to western blot analysis. Briefly, proteins with same amount were denatured in sample buffer, separated on 8% SDS-PAGE gel, and transferred onto a polyvinylidene diflouride membrane. The membranes were blocked for 1 h at 37 °C with 10% defatted milk in Tris-buffered saline (10 mM Tris-HCl, pH 7.5 and 137 mM NaCl) containing 0.05% Tween 20 (TBST). Membranes were then incubated overnight at 4 °C in blocking buffer with antibodies for GLUT-2, SGLT-1 and β-actin (EMD, Millipore, Billerica, MA, USA). Membranes were washed with TBST and incubated 1 h with appropriate secondary antibodies. Revelation was performed by using the enhanced chemiluminescence reagent and blue-light sensitive film. Densitometric analysis of films was performed with a Hewlett-Packard scanner equipped with a transparent adaptor and UN-SCAN-IT software.

For data set [6], the system named is STZ-induced diabetic rats. The data set can be described thus: Serum lipid profile (TG, TC, LDL-C, HDL-C) in STZ-induced diabetic rats. It is filed as in vivo, rat. The following applies: 4 weeks, compounds 100 mg/kg, glibenclamide 10 mg/kg. On the procedure:
as §3, §4, §5, §6

For data set [7], the system named is Caco-2 cells. As to the kind of experiment: 2-NBDG glucose uptake by Caco-2 cell monolayers, Na+-independent (sodium free buffer). The format is cell-based, Human. The note with it: 100 μM compound, Na+-independent (KCl/K2HPO4 buffer). On the procedure:
Caco-2 cells, which were derived from human colon adenocarcinoma, were selected for intestinal absorption studies because these cells express the morphological characteristics and most of the functional properties of differentiated small-intestinal enterocytes. Caco-2 cells were seeded on 24-well plates at the density of 2 × 10^5 cells/well. The medium was changed every 1–2 days, and the culture was carried out for 13 days. Then Caco-2 cells were placed in serum-free media for 24 h and then they were washed twice with Hanks’ balanced salt solution (HBSS, pH 7.5, 140 mM NaCl, 5 mM KCl, 1.2 mM Na2HPO4, 2 mM CaCl2, 1.2 mM MgSO4, 20 mM HEPES, 0.2% bovine serum albumin) before the uptake studies. When a sodium free buffer was required, NaCl and Na2HPO4 were replaced with equal amounts of KCl and K2HPO4, respectively. After washing, the cells were incubated for 15 min at room temperature in HBSS before the commencement of this experiment. The uptake studies were initiated by adding HBSS containing either control or test solution (100 μM) and […] (100 μM) for 30 min at 37 °C. Glucose uptake was stopped by adding twofold volume of ice-cold PBS and the wells were washed with ice-cold PBS three times. Fluorescent intensity was measured by a Multimodel Plate Reader (Tecan Infinity 200) with the 485 nmex and 535 nmemiss filter set before and after adding 2-NBDG. Then the cells were lysed in 200 μL lysis buffer (10 mM Tris-HCl pH = 7.4, 150 mM NaCl, 1% Triton-x-100, 1 mM EDTA, 0.1% SDS) and supplemented immediately before they were processed with 10 μg/mL PMSF. Cells were allowed to lyse on ice, and then vortexed and sonicated. The lysate was used for protein determination, protein concentrations were determined as described by BCA kit (Boster, Wuhan, China) with bovine serum albumin as standard.

The nature of data set [8]: MTT cytotoxicity assay on Caco-2 cells. The format is cell-based, Human. The note with it: human. On the procedure: as §1, §2

What is called inhibition is how much of the control response was suppressed. As for `CC(C)C(=O)O[C@H]1CC[C@@]2(C)C(CC[C@]3(C)C2CC=C2C4[C@@H](C)[C@H](C)CC[C@]4(C(=O)O)CC[C@]23C)C1(C)C` (some centres unmarked) [Compound 12], the inhibition at 100 µM with Caco-2 cells [1] was 7.67 ± 5.36%. Moreover, in data set [2], the “daily food intake vs untreated diabetic rats” value is reported as “no obvious decrease”. The “effect on protein expression of SGLT-1” value in the data set on SGLT-1 was “significantly reduce”. In addition, in data set [3], the “GSH level in kidney” value was “great effect”. Besides, in data set [4], the “serum albumin level vs diabetic control” value is “no appreciable improvement”, the “serum insulin level vs diabetic control” value is “non-significant effect” and the “serum total protein level vs diabetic control” value is “no appreciable improvement”. Moreover, in data set [5], the “effect on lowering fasting blood glucose levels” value is recorded as “no significant effect”; the “Fasting Blood Glucose Level, Week 0” value is recorded as 325.80 ± 14.58 mg/dL; the “Fasting Blood Glucose Level, Week 1” value amounted to 392.40 ± 36.54 mg/dL; the “Fasting Blood Glucose Level, Week 2” value is recorded as 379.80 ± 30.60 mg/dL. In addition, in data set [5], the “Fasting Blood Glucose Level, Week 3” value was 408.60 ± 20.52 mg/dL and the “Fasting Blood Glucose Level, Week 4” value is reported as 432.00 ± 28.26 mg/dL.

`CCCC(=O)O[C@H]1CC[C@@]2(C)C(CC[C@]3(C)C2CC=C2C4[C@@H](C)[C@H](C)CC[C@]4(C(=O)O)CC[C@]23C)C1(C)C` (some centres unmarked) [Compound 11]: the inhibition at 100 µM with Caco-2 cells [1] worked out at 2.29 ± 6.08%. Also, in the data set with GLUT-2, the “effect on expression of protein GLUT-2” value is on record as “significant effects on reducing”. In addition, in data set [2], the “daily food intake vs untreated diabetic rats” value is “reduce daily food intake significantly”. Moreover, in [6], the “serum TC level vs diabetic control” value is “significantly decreased” and the “serum TG level vs diabetic control” value was “significantly decreased”. The “GSH level in kidney” value in data set [3] is given as “great effect”. Besides, the “SOD level in the liver and kidney” value in [3] (liver and kidney of STZ diabetic rats) is given as “great improvement”. Moreover, in data set [4], the “serum albumin level vs diabetic control” value is given as “no appreciable improvement”, the “serum insulin level vs diabetic control” value is on record as “non-significant effect” and the “serum total protein level vs diabetic control” value was “no appreciable improvement”. For the same compound, in the data set with Caco-2 cells [7], the “glucose uptake, % of the control value (Na+-independent)” value is listed as 74 % of the control value. In data set [5], the “effect on lowering fasting blood glucose levels” value is listed as “no significant effect”; the “Fasting Blood Glucose Level, Week 0” value came out at 318.60 ± 17.64 mg/dL; the “Fasting Blood Glucose Level, Week 1” value is 365.40 ± 20.34 mg/dL; the “Fasting Blood Glucose Level, Week 2” value was 352.80 ± 27.36 mg/dL. Also, in data set [5], the “Fasting Blood Glucose Level, Week 3” value was determined as 324.00 ± 23.04 mg/dL and the “Fasting Blood Glucose Level, Week 4” value turned out to be 351.00 ± 26.64 mg/dL.

One may read the viability as the share of living cells, or the viability signal relative to a control. A lower viability goes with more harm to the cells. As for `CC(=O)O[C@H]1CC[C@@]2(C)C(CC[C@]3(C)C2CC=C2C4[C@@H](C)[C@H](C)CC[C@]4(C(=O)Nc4ccccc4F)CC[C@]23C)C1(C)C` (some centres unmarked) [Compound 6], the viability at 24 h, 100 µM in data set [8] is 86.1%. Further, in the data set with Caco-2 cells [1], the inhibition at 100 µM was 13.9 ± 4.52%.
